Calls of active or inactive are those of the source. The rule behind the calls is not given here.
Assays:
HT-1080 [1] = assay: Induction of apoptosis in human HT1080 cells assessed as induction of DNA fragmentation at 50 uM incubated for 48 hrs by flow cytometry; format: functional, cell-based
PC-3 [2] = assay: Cytotoxic activity in human PC3 cells assessed as reduction in cell viability incubated for 3 days by MTT assay; format: functional, cell-based; conditions: PC-3, 72 h
MDA-MB-231 [3] = assay: Cytotoxic activity in human MDA-MB-231 cells assessed as reduction in cell viability incubated for 3 days by MTT assay; format: functional, cell-based; conditions: MDA-MB-231, 72 h
HT-1080 [4] = assay: Cytotoxic activity in human HT1080 cells assessed as reduction in cell viability incubated for 3 days by MTT assay; format: functional, cell-based; conditions: HT-1080, 72 h
HT-1080 [5] = assay: Induction of cell cycle arrest in human HT1080 cells assessed as accumulation at G0/G1 phase at 50 uM incubated for 48 hrs by propidium iodide staining based flow cytometry; format: functional
HT-1080 [6] = assay: Induction of cell cycle arrest in human HT1080 cells assessed as accumulation at G2/M phase at 50 uM incubated for 48 hrs by propidium iodide staining based flow cytometry; format: functional
PC-3 [7] = assay: Increase in p21(WAF1) protein expression in human PC3 cells at 50 uM incubated for 24 hrs by Western blot analysis; format: functional, cell-based
MDA-MB-231 [8] = assay: Increase in p21(WAF1) protein expression in human MDA-MB-231 cells at 50 uM incubated for 24 hrs by Western blot analysis; format: functional, cell-based
HT-1080 [9] = assay: Increase in p21(WAF1) protein expression in human HT1080 cells at 50 uM incubated for 24 hrs by Western blot analysis; format: functional, cell-based
HT-1080 [10] = assay: Induction of apoptosis in human HT1080 cells assessed as induction of caspase-3 cleavage at 50 uM incubated for 24 hrs by Western blot analysis; format: functional, cell-based
HT-1080 [11] = assay: Induction of cell cycle arrest in human HT1080 cells assessed as accumulation at G0/G1 phase at 20 uM incubated for 48 hrs by propidium iodide staining based flow cytometry; format: functional
HT-1080 [12] = assay: Induction of cell cycle arrest in human HT1080 cells assessed as accumulation at G2/M phase at 20 uM incubated for 48 hrs by propidium iodide staining based flow cytometry; format: functional
[13] = biological target: T1, Mitogen-activated protein kinase; ERK1/ERK2 (Homo sapiens) (UniProt P27361+P28482); assay: Induction of ERK1/2 Thr202/Tyr204 phosphorylation in human PC3 cells at 50 uM incubated for 24 hrs by Western blot analysis; format: cell-based
T1 sequence (P27361 whole entry, looked up): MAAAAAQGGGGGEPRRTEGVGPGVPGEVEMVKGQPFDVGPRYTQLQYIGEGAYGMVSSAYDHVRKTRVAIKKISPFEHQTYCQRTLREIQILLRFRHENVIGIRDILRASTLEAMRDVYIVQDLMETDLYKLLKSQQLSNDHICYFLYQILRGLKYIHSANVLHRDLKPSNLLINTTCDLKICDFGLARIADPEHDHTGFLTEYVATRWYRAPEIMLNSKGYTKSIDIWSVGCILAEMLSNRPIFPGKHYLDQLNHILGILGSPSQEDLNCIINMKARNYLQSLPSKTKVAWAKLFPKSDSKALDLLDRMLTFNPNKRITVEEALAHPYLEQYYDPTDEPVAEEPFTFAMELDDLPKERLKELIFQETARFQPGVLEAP
T1 sequence (P28482 whole entry, looked up): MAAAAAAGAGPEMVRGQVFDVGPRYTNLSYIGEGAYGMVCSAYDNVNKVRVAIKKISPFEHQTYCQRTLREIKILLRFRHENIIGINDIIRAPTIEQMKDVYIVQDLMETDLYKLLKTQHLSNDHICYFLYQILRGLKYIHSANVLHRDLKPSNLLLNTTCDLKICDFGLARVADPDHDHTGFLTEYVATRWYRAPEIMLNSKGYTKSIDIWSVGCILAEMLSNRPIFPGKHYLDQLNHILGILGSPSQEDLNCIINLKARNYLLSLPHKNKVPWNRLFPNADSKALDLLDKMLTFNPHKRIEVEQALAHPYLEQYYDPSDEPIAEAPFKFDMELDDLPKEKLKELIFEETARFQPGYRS

[14] = biological target: T1, Mitogen-activated protein kinase; ERK1/ERK2 (Homo sapiens); assay: Inhibition of ERK1/2 Thr202/Tyr204 phosphorylation in human MDA-MB-231 cells at 50 uM incubated for 24 hrs by Western blot analysis; format: cell-based

| Structure (SMILES) | Activity (HT-1080 [1]) | IC50 (PC-3 [2]) | IC50 (MDA-MB-231 [3]) | IC50 (HT-1080 [4]) | Activity (HT-1080 [5]) | Activity (HT-1080 [6]) | Activity (PC-3 [7]) | Activity (MDA-MB-231 [8]) | Activity (HT-1080 [9]) | Activity (HT-1080 [10]) | Activity (HT-1080 [11]) | Activity (HT-1080 [12]) | Activity [13] | inhibition [14] |
| --- | --- | --- | --- | --- | --- | --- | --- | --- | --- | --- | --- | --- | --- | --- |
| O=C1NC(=O)/C(=C\c2ccc(OCc3nc4ccccc4c(=O)n3-c3cccc(Br)c3)cc2)S1 | Active | 52.9 µM | 49.8 µM | 28.4 µM | Active | Active |  |  |  |  |  |  |  |  |
| Cc1ccc(/C=C2/SC(=O)N(Cc3nc4ccccc4c(=O)n3-c3ccccc3)C2=O)cc1 |  | 82.4 µM | 39.7 µM | 68.4 µM |  |  |  |  |  |  |  |  |  |  |
| Cc1cccc(-n2c(COc3ccc(/C=C4/SC(=O)NC4=O)cc3)nc3ccccc3c2=O)c1 |  | > 100 µM | > 100 µM | 54 µM |  |  |  |  |  |  |  |  |  |  |
| O=C1NC(=O)/C(=C\c2ccc(OCc3nc4ccccc4c(=O)n3-c3ccc(F)cc3)cc2)S1 | Active | 52.1 µM | 46.2 µM | 45.3 µM | Active | Active |  |  |  |  |  |  |  |  |
| CCc1ccc(CCOc2ccc(CC3SC(=O)NC3=O)cc2)nc1 (stereo not given) [PIOGLITAZONE] | inactive | > 100 µM | > 100 µM | > 100 µM |  |  | Active | Active | inactive |  |  |  |  |  |
| COc1cc(/C=C2/SC(=O)NC2=O)ccc1OCc1nc2ccccc2c(=O)n1-c1cccc(Cl)c1 |  | 62.1 µM | 72.5 µM | 67.6 µM |  |  |  |  |  |  |  |  |  |  |
| COc1ccc(/C=C2/SC(=O)N(Cc3nc4ccccc4c(=O)n3-c3ccccc3)C2=O)cc1 | Active | 79.6 µM | 32.5 µM | 47.8 µM | Active | Active |  |  |  |  |  |  |  |  |
| COc1cc(-n2c(CN3C(=O)S/C(=C/c4ccc(N(C)C)cc4)C3=O)nc3ccccc3c2=O)cc(OC)c1OC | inactive | > 100 µM | > 100 µM | 98.1 µM | Active | Active |  |  |  | Active |  |  |  |  |
| COc1cc(/C=C2/SC(=O)NC2=O)ccc1OCc1nc2ccccc2c(=O)n1-c1ccc(Br)cc1 | Active | 51.1 µM | 51.3 µM | 18.9 µM | Active | Active |  |  |  | Active |  |  |  |  |
| O=C1NC(=O)/C(=C\c2ccc(OCc3nc4ccccc4c(=O)n3-c3ccc(Br)cc3)cc2)S1 | Active | 60.7 µM | 45.4 µM | 46.1 µM | Active | Active |  |  |  |  |  |  |  |  |
| COc1cc(/C=C2/SC(=O)NC2=O)ccc1OCc1nc2ccccc2c(=O)n1-c1cccc(Br)c1 | Active | 66.8 µM | 62.1 µM | 41.9 µM | Active | Active |  |  |  |  |  |  |  |  |
| O=C1NC(=O)/C(=C\c2ccc(OCc3nc4ccccc4c(=O)n3-c3ccc(Cl)cc3)cc2)S1 | Active | 8.7 µM | 4.5 µM | 3.9 µM |  |  | Active | Active | inactive | Active | Active | Active | Active | Active |
| O=C1NC(=O)/C(=C\c2ccc(OCc3nc4ccccc4c(=O)n3-c3ccc(C(F)(F)F)cc3)cc2)S1 | Active | 19.1 µM | 13 µM | 9 µM |  |  | Active | Active | inactive | Active | Active | Active | Active | Active |
| O=C1NC(=O)/C(=C\c2ccc(OCc3nc4ccccc4c(=O)n3-c3ccccc3)cc2)S1 | Active | 71 µM | 50.7 µM | 34.9 µM | Active | Active |  |  |  |  |  |  |  |  |
| COc1cc(/C=C2/SC(=O)NC2=O)ccc1OCc1nc2ccccc2c(=O)n1-c1ccccc1 | Active | 64.2 µM | 84.2 µM | 64.7 µM | Active | Active |  |  |  |  |  |  |  |  |
| O=C1NC(=O)/C(=C\c2ccc(OCc3nc4ccccc4c(=O)n3-c3cccc(Cl)c3)cc2)S1 | Active | 70.2 µM | 58.5 µM | 44.8 µM | Active | Active |  |  |  |  |  |  |  |  |
| O=C1S/C(=C/c2ccc(Cl)cc2Cl)C(=O)N1Cc1nc2ccccc2c(=O)n1-c1ccccc1 | inactive | 58.1 µM | 6.4 µM | 12.2 µM |  |  |  |  |  |  | Active | Active |  |  |
| COc1cccc(-n2c(COc3ccc(/C=C4/SC(=O)NC4=O)cc3)nc3ccccc3c2=O)c1 | Active | 66.9 µM | 59.6 µM | 45.6 µM | Active | Active |  |  |  |  |  |  |  |  |
| CN(C)c1ccc(/C=C2/SC(=O)N(Cc3nc4ccccc4c(=O)n3-c3ccccc3)C2=O)cc1 | Active | 19.4 µM | 5.9 µM | 9 µM |  |  |  |  |  | Active | Active | Active | Active | Active |
| COc1ccc(-n2c(CN3C(=O)S/C(=C/c4ccc(N(C)C)cc4)C3=O)nc3ccccc3c2=O)cc1OC | Active | > 100 µM | > 100 µM | 86.5 µM | Active | Active |  |  |  | Active |  |  |  |  |
| COc1cc(/C=C2/SC(=O)NC2=O)ccc1OCc1nc2ccccc2c(=O)n1-c1ccc(C(F)(F)F)cc1 | Active | 50.1 µM | 41 µM | 38.8 µM | Active | Active |  |  |  | Active |  |  |  |  |
| Cc1ccc(-n2c(COc3ccc(/C=C4/SC(=O)NC4=O)cc3)nc3ccccc3c2=O)cc1 | Active | 82.5 µM | 72.2 µM | 45.3 µM | Active | Active |  |  |  |  |  |  |  |  |
| O=C1S/C(=C/c2ccccc2)C(=O)N1Cc1nc2ccccc2c(=O)n1-c1cccc(Br)c1 |  | 37 µM | 23.4 µM | 24.6 µM |  |  |  |  |  |  |  |  |  |  |
| COc1cccc(-n2c(COc3ccc(/C=C4/SC(=O)NC4=O)cc3OC)nc3ccccc3c2=O)c1 | Active | 64.1 µM | 87.2 µM | 47.9 µM | Active | Active |  |  |  |  |  |  |  |  |
| COc1cccc2c1C(=O)c1c(O)c3c(c(O)c1C2=O)C[C@@](O)(C(=O)CO)C[C@@H]3O[C@H]1C[C@H](N)[C@H](O)[C@H](C)O1 [DOXORUBICIN] |  | 0.3 µM | 0.36 µM | 0.017 µM |  |  |  |  |  |  |  |  |  |  |

From ChEMBL document CHEMBL4270491, “Novel 2,4- thiazolidinediones: Synthesis, in vitro cytotoxic activity, and mechanistic investigation” (Eur J Med Chem, 2017)
